Experimental data from patent US9334246B2, “Substituted triazines for malaria treatment and chemoprophylaxis” (The United States of America, as represented by the …, priority 2013, dated 2016).

Legend:
Assay type in all cases: cell-based, Plasmodium falciparum
[1] = tested on: P. falciparum D6; assay: Malaria SYBR Green Fluorescence Assay, D6 strain; settings: for D6: SYBR Green Assay
[2] = tested on: P. falciparum W2; assay: Malaria SYBR Green Fluorescence Assay, W2 strain; settings: for W2: SYBR Green Assay
[3] = tested on: P. falciparum C235; assay: Malaria SYBR Green Fluorescence Assay, C235 strain; settings: for C235: SYBR Green Assay

Compound | D6 [1] | W2 [2] | C235 [3] | D6 (SYBR Green Assay IC50) [1] | W2 (SYBR Green Assay IC50) [2] | C235 (SYBR Green Assay IC50) [3]
Cc1ccc(-c2ccccc2-c2nc(NCc3ccncc3)nc(C(Cl)(Cl)Cl)n2)cc1 [Cmpd 299] | 195 ng/mL | 148 ng/mL | 311 ng/mL | – | – | –
OCCN1CCN(c2nc(Nc3ccc(OC(F)(F)F)cc3)nc(C(Cl)(Cl)Cl)n2)CC1 [Cmpd 302] | 166 ng/mL | 107 ng/mL | 299 ng/mL | – | – | –
NC1(CNc2nc(Nc3ccc(OC(F)(F)F)cc3)nc(C(Cl)(Cl)Cl)n2)CCOCC1 [Cmpd 303] | 43 ng/mL | 61 ng/mL | 65 ng/mL | – | – | –
OCCN1CCN(c2nc(-c3ccc(Cl)c(Cl)c3)nc(C(Cl)(Cl)Cl)n2)CC1 [Cmpd 304] | 80 ng/mL | 41 ng/mL | 201 ng/mL | – | – | –
OCCN1CCN(c2nc(-c3ccc4ccccc4c3)nc(C(Cl)(Cl)Cl)n2)CC1 [Cmpd 305] | 35 ng/mL | 23 ng/mL | 68 ng/mL | – | – | –
OCCN1CCN(c2nc(-c3ccc(-c4ccccc4)cc3)nc(C(Cl)(Cl)Cl)n2)CC1 [Cmpd 308] | 52 ng/mL | 24 ng/mL | 126 ng/mL | – | – | –
CSc1ccc(-c2nc(N3CCN(CCO)CC3)nc(C(Cl)(Cl)Cl)n2)cc1 [Cmpd 309] | 188 ng/mL | 122 ng/mL | 438 ng/mL | – | – | –
NC1(CNc2nc(-c3ccc(C(Cl)(Cl)Cl)cc3)nc(C(Cl)(Cl)Cl)n2)CCOCC1 [Cmpd 311] | 81 ng/mL | 47 ng/mL | 169 ng/mL | – | – | –
COc1ccc(-c2nc(NCC3(N)CCOCC3)nc(C(Cl)(Cl)Cl)n2)cc1OC [Cmpd 319] | 16 ng/mL | 10 ng/mL | 34 ng/mL | – | – | –
CSc1ccc(-c2nc(NC3CC(C)(C)NC(C)(C)C3)nc(C(Cl)(Cl)Cl)n2)cc1 [Cmpd 323] | 20 ng/mL | 17 ng/mL | 51 ng/mL | – | – | –
CC1(C)CC(Nc2nc(-c3ccc(C(Cl)(Cl)Cl)cc3)nc(C(Cl)(Cl)Cl)n2)CC(C)(C)N1 [Cmpd 325] | 123 ng/mL | 82 ng/mL | 269 ng/mL | – | – | –
NC1(CNc2nc(-c3ccc(Cl)cc3)nc(C(Cl)(Cl)Cl)n2)CCOCC1 [Cmpd 333] | 26 ng/mL | 15 ng/mL | 40 ng/mL | – | – | –
Clc1cccc(-c2nc(NCCN3CCCC3)nc(C(Cl)(Cl)Cl)n2)c1 [Cmpd 334] | 9 ng/mL | 2 ng/mL | 15 ng/mL | – | – | –
CCN1CCC(CNc2nc(-c3cccc(Cl)c3)nc(C(Cl)(Cl)Cl)n2)CC1 [Cmpd 339] | 34 ng/mL | 14 ng/mL | 41 ng/mL | – | – | –
COc1ccc(Nc2nc(NCCC3CCCN3C)nc(C(Cl)(Cl)Cl)n2)cn1 (stereo not drawn) [Cmpd 341] | 7 ng/mL | 5 ng/mL | 10 ng/mL | – | – | –
CCN(CC)CCNc1nc(Nc2ccc(OC)nc2)nc(C(Cl)(Cl)Cl)n1 [Cmpd 342] | 335 ng/mL | 149 ng/mL | 398 ng/mL | – | – | –
CCN1CCCC(Nc2nc(Nc3ccc(OC)nc3)nc(C(Cl)(Cl)Cl)n2)C1 (stereo not drawn) [Cmpd 344] | 80 ng/mL | 34 ng/mL | 98 ng/mL | – | – | –
COc1ccc(Nc2nc(N3CCN(C)CC3)nc(C(Cl)(Cl)Cl)n2)cn1 [Cmpd 345] | 267 ng/mL | 199 ng/mL | 1100 ng/mL | – | – | –
COc1ncccc1Nc1nc(NCCC2CCCN2C)nc(C(Cl)(Cl)Cl)n1 (stereo not drawn) [Cmpd 346] | 62 ng/mL | 52 ng/mL | 116 ng/mL | – | – | –
COc1ccc(Nc2nc(NC3CCN(C)CC3)nc(C(Cl)(Cl)Cl)n2)cn1 [Cmpd 349] | 124 ng/mL | 129 ng/mL | 296 ng/mL | – | – | –
COc1ncccc1Nc1nc(NCCN2CCCC2)nc(C(Cl)(Cl)Cl)n1 [Cmpd 350] | 560 ng/mL | 467 ng/mL | 900 ng/mL | – | – | –
COc1ncccc1Nc1nc(N2CCN(C)CC2)nc(C(Cl)(Cl)Cl)n1 [Cmpd 353] | – | – | – | 0.101 µg/mL | 0.08 µg/mL | 0.211 µg/mL
CCC(N)(CC)CNc1nc(-c2ccc(F)cc2)nc(C(Cl)(Cl)Cl)n1 [Cmpd 359] | – | – | – | 0.045 µg/mL | 0.051 µg/mL | 0.095 µg/mL
COc1ncccc1Nc1nc(N2CCCNCC2)nc(C(Cl)(Cl)Cl)n1 [Cmpd 378] | – | – | – | 0.05 µg/mL | 0.059 µg/mL | 0.098 µg/mL
COc1ncccc1Nc1nc(N2CCCN(C)CC2)nc(C(Cl)(Cl)Cl)n1 [Cmpd 379] | – | – | – | 0.066 µg/mL | 0.092 µg/mL | 0.159 µg/mL

Compound | D6 [1] | W2 [2] | C235 [3] | D6 (SYBR Green Assay IC50) [1] | W2 (SYBR Green Assay IC50) [2] | C235 (SYBR Green Assay IC50) [3]
CN1CCCN(c2nc(-c3ccc(F)cc3)nc(C(Cl)(Cl)Cl)n2)CC1 [Cmpd 384] | – | – | – | 0.025 µg/mL | 0.029 µg/mL | 0.059 µg/mL
CN1CCC(Nc2nc(-c3ccc(F)cc3)nc(C(Cl)(Cl)Cl)n2)CC1 [Cmpd 385] | – | – | – | 0.028 µg/mL | 0.039 µg/mL | 0.057 µg/mL
CCC(N)(CC)CNc1nc(-c2ccc(Cl)c(Cl)c2)nc(C(Cl)(Cl)Cl)n1 [Cmpd 388] | – | – | – | 0.132 µg/mL | 0.098 µg/mL | 0.153 µg/mL
CC(C)(N)CNc1nc(-c2ccc(F)cc2)nc(C(Cl)(Cl)Cl)n1 [Cmpd 389] | – | – | – | 0.03 µg/mL | 0.013 µg/mL | 0.045 µg/mL
CN1CCN(c2nc(-c3ccc(F)cc3)nc(C(Cl)(Cl)Cl)n2)CC1 [Cmpd 390] | – | – | – | 0.495 µg/mL | 0.143 µg/mL | 0.567 µg/mL
CC1(C)CC(Nc2nc(-c3ccc(F)cc3)nc(C(Cl)(Cl)Cl)n2)CC(C)(C)N1 [Cmpd 391] | – | – | – | 0.043 µg/mL | 0.019 µg/mL | 0.046 µg/mL
COc1ccc(-c2nc(NCC(C)(C)N)nc(C(Cl)(Cl)Cl)n2)cc1OC [Cmpd 396] | – | – | – | 0.086 µg/mL | 0.049 µg/mL | 0.117 µg/mL
COc1ccc(Nc2nc(NCC(C)(C)N)nc(C(Cl)(Cl)Cl)n2)cn1 [Cmpd 403] | – | – | – | 0.134 µg/mL | 0.078 µg/mL | 0.203 µg/mL
ClC(Cl)(Cl)c1nc(NCCN2CCCC2)nc(-c2ccccc2)n1 [Cmpd 405] | – | – | – | 0.027 µg/mL | 0.016 µg/mL | 0.045 µg/mL
ClC(Cl)(Cl)c1nc(NCCCN2CCCC2)nc(-c2ccccc2)n1 [Cmpd 406] | – | – | – | 0.077 µg/mL | 0.035 µg/mL | 0.089 µg/mL
ClC(Cl)(Cl)c1nc(-c2ccccc2)nc(N2CCCNCC2)n1 [Cmpd 408] | – | – | – | 0.19 µg/mL | 0.084 µg/mL | 0.189 µg/mL
CN1CCCN(c2nc(-c3ccccc3)nc(C(Cl)(Cl)Cl)n2)CC1 [Cmpd 409] | – | – | – | 0.118 µg/mL | 0.043 µg/mL | 0.119 µg/mL
CCN1CCC(CNc2nc(-c3ccccc3)nc(C(Cl)(Cl)Cl)n2)CC1 [Cmpd 410] | – | – | – | 0.103 µg/mL | 0.035 µg/mL | 0.113 µg/mL
COc1ccc(-c2nc(N3CCN(CCO)CC3)nc(C(Cl)(Cl)Cl)n2)c2ccccc12 [Cmpd 422] | – | – | – | 0.291 µg/mL | 0.073 µg/mL | 0.31 µg/mL
CN1CCN(c2nc(-c3ccc(N4CCCC4)cc3)nc(C(Cl)(Cl)Cl)n2)CC1 [Cmpd 427] | – | – | – | 0.676 µg/mL | 0.459 µg/mL | 0.877 µg/mL
CCN1CCCC(Nc2nc(-c3ccc(N4CCCC4)cc3)nc(C(Cl)(Cl)Cl)n2)C1 (stereo not drawn) [Cmpd 429] | – | – | – | 0.791 µg/mL | 0.607 µg/mL | 0.912 µg/mL
Clc1cccc(-c2nc(NCCCN3CCCC3)nc(C(Cl)(Cl)Cl)n2)c1 [Cmpd 433] | – | – | – | 0.076 µg/mL | 0.044 µg/mL | 0.145 µg/mL
CN1CCN(c2nc(-c3cccc(Cl)c3)nc(C(Cl)(Cl)Cl)n2)CC1 [Cmpd 436] | – | – | – | 0.155 µg/mL | 0.019 µg/mL | 0.158 µg/mL
CN(C)CCCNc1nc(-c2ccc(S(C)(=O)=O)cc2)nc(C(Cl)(Cl)Cl)n1 [Cmpd 442] | – | – | – | 0.002 µg/mL | 0.001 µg/mL | 0.002 µg/mL
CN(C)CCCNc1nc(-c2ccccc2)nc(C(Cl)(Cl)Cl)n1 [Cmpd 443] | – | – | – | 0.145 µg/mL | 0.043 µg/mL | 0.161 µg/mL
CN(C)CCCNc1nc(-c2ccc(-c3ccccc3)cc2)nc(C(Cl)(Cl)Cl)n1 [Cmpd 445] | – | – | – | 0.151 µg/mL | 0.116 µg/mL | 0.189 µg/mL
Cc1ccc(-c2ccccc2-c2nc(NCCCN(C)C)nc(C(Cl)(Cl)Cl)n2)cc1 [Cmpd 446] | – | – | – | 0.482 µg/mL | 0.223 µg/mL | 0.535 µg/mL
CN(C)CCCNc1nc(-c2ccc(F)cc2)nc(C(Cl)(Cl)Cl)n1 [Cmpd 448] | – | – | – | 0.035 µg/mL | 0.007 µg/mL | 0.04 µg/mL
COc1ccc(-c2nc(NCCCN(C)C)nc(C(Cl)(Cl)Cl)n2)cc1OC [Cmpd 450] | – | – | – | 0.239 µg/mL | 0.091 µg/mL | 0.252 µg/mL
Cc1ccc(-c2nc(N3CCCN(CCO)CC3)nc(C(Cl)(Cl)Cl)n2)cc1 [Cmpd 453] | – | – | – | 0.173 µg/mL | 0.043 µg/mL | 0.112 µg/mL
